# Results published in publication PMC12951562, “SH2scan: Mapping SH2 Domain-Ligand Binding Selectivity for Inhibitors and Degraders” (Journal of Medicinal Chemistry, 2026).
# Non-standard residues stand in square brackets, D forms with d. Residues, ends and D or L forms follow the SMILES beside them. pY = N[C@@H](Cc1ccc(OP(=O)(O)O)cc1)C(=O)O
# Target: T1, SH3BP2 (Homo sapiens, UniProt P78314)
# T1 construct: made in house; host or cells: HEK293 (transient transfection), unpurified extract
# T1 sequence (P78314 1-561): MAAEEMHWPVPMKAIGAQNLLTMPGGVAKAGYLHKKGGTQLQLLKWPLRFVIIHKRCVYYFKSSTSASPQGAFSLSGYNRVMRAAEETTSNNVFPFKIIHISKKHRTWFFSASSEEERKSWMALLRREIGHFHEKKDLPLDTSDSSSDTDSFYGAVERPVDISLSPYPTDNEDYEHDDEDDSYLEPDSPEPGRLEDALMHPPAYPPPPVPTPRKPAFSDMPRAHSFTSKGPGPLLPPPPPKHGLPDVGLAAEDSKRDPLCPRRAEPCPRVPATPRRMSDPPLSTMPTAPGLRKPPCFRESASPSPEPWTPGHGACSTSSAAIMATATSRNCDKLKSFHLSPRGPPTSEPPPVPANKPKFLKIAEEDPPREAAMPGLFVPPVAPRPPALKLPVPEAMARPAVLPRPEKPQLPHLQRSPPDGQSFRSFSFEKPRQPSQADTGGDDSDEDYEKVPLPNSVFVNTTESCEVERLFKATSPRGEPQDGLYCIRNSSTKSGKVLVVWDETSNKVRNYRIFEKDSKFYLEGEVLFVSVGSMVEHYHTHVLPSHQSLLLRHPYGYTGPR
# Test: biochemical
# Assay type: binding
smiles,measurement,value
CC[C@H](C)[C@H](NC(=O)[C@H](CO)NC(=O)[C@H](CC(C)C)NC(=O)[C@H](CCCNC(=N)N)NC(=O)[C@H](CO)NC(=O)[C@H](CS)NC(C)=O)C(=O)N[C@@H](Cc1ccc(OP(=O)(O)O)cc1)C(=O)N[C@@H](CC(=O)O)C(=O)N[C@@H](CC(N)=O)C(=O)N[C@H](C(=O)N1CCC[C@H]1C(=O)NCC(N)=O)C(C)C [Ac-CSRLSIpYDNVPG-NH2] (Ac-CSRLSI[pY]DNVPG-NH2),Kd,209 ± 10.1 nM
